Measurements as given in ChEMBL document CHEMBL1123943, “Biologically active dihydrodiol metabolites of polycyclic aromatic hydrocarbons structurally related to the potent carcinogenic hydrocarbon 7,12-dimethylbenz[a]anthracene” (1988).

Experiments:
Assay type in all cases: functional
Mus musculus [1] = species: Mus musculus; assay: Tumor initiating activity measured as number of papillomas on mouse skin at a dose of 100 nmol
Mus musculus [2] = species: Mus musculus; assay: Tumor initiating activity measured as percentage of mice with papillomas at a dose of 100 nmol
Rattus norvegicus [3] = assay: Tumor initiating activity measured as incidence of % aberrent cells with chromosomal aberrations, at given dose of 50 mg/kg
Rattus norvegicus [4] = assay: Tumor initiating activity measured as number of chromosomal aberrations per cell, at a dose of 50 mg/kg
Mus musculus [5] = species: Mus musculus; assay: Tumor initiating activity measured as number of papillomas on mouse skin at a dose of 200 nmol
Mus musculus [6] = species: Mus musculus; assay: Tumor initiating activity measured as percentage of mice with papillomas at a dose of 200 nmol
Mus musculus [7] = species: Mus musculus; assay: Tumor initiating activity measured as number of papillomas on mouse skin at a dose of 50 nmol
Mus musculus [8] = species: Mus musculus; assay: Tumor initiating activity measured as percentage of mice with papillomas at a dose of 50 nmol
Rattus norvegicus [9] = assay: Tumor initiating activity measured as number of chromosomal aberrations per cell, at a dose of 25 mg/kg
Rattus norvegicus [10] = assay: Tumor initiating activity measured as incidence of % aberrent cells with chromosomal aberrations, at given dose of 25 mg/kg
Rattus norvegicus [11] = assay: Tumor initiating activity measured as number of chromosomal aberrations per cell, at given dose 50 mg/kg

Cc1ccc2cc3c(ccc4ccccc43)c3c2c1CC3 [3-METHYLCHOLANTHRENE]
papillomas per mouse (Mus musculus [1]): 7.13 papillomas/mouse | Activity (Mus musculus [2]): 97%

Oc1ccc2c(ccc3cc4ccccc4cc32)c1O
Activity (Rattus norvegicus [3]): 2.2% | aberrations per cell (Rattus norvegicus [4]): 0.02 aberrations/cell

Cc1ccc2cc3c(ccc4c(O)c(O)ccc43)c3c2c1CC3
papillomas per mouse (Mus musculus [1]): 7.7 papillomas/mouse | Activity (Mus musculus [2]): 100%

Cc1c2ccccc2cc2c1ccc1c(O)c(O)ccc12
Activity (Rattus norvegicus [3]): 6.6% | aberrations per cell (Rattus norvegicus [4]): 0.07 aberrations/cell

c1cc2c3c(c4ccc5ccccc5c4cc3c1)CC2 [CHOLANTHRENE]
papillomas per mouse (Mus musculus [5]): 6.9 papillomas/mouse | Activity (Mus musculus [6]): 93%

Oc1ccc2c(ccc3c4c5c(cccc5cc32)CC4)c1O
papillomas per mouse (Mus musculus [5]): 3.32 papillomas/mouse | Activity (Mus musculus [6]): 80%

Cc1c2cccc3c2c(c2ccc4c(O)c(O)ccc4c12)CC3
papillomas per mouse (Mus musculus [7]): 16.5 papillomas/mouse | Activity (Mus musculus [8]): 100%

Cc1c2ccccc2cc2ccc3c(O)c(O)ccc3c12
aberrations per cell (Rattus norvegicus [9]): 0.17 aberrations/cell | Activity (Rattus norvegicus [10]): 12.8%

Cc1c2ccccc2c(C)c2c1ccc1c(O)c(O)ccc12
Activity (Rattus norvegicus [3]): 53% | aberrations per cell (Rattus norvegicus [9]): 0.31 aberrations/cell | aberrations per cell (Rattus norvegicus [11]): 1.44 aberrations/cell | Activity (Rattus norvegicus [10]): 22.2%

Cc1c2cccc3c2c(c2ccc4ccccc4c12)CC3
papillomas per mouse (Mus musculus [7]): 14.7 papillomas/mouse | Activity (Mus musculus [8]): 100%
